Data published in patent EP0908457B1, “3-(1,2-benzisothiazol- and isoxazol-5-Y1)-2,4(1H,3H)-pyrimidinedione or thione and 3-(1,2-benzisothiazol- and isoxazol-5-y1)-4(3H)-pyrimidinone or thione herbicidal agents” (BASF AKTIENGESELLSCHAFT, priority 1997, dated 1999).

Columns and labels:
[1] = test system: Monochoria vaginalis, Presl.; test: Preemergence weed control under flooded paddy conditions, MOOVA (Monochoria); assay type: in vivo; conditions: preemergence, flooded paddy, rated three to four weeks after treatment
[2] = test system: Cyperus serotinus, Rottb.; test: Preemergence weed control under flooded paddy conditions, CYPSE (Flatsedge); assay type: in vivo; conditions: preemergence, rated three to four weeks after treatment
[3] = test system: Cyperus iria; test: Preemergence weed control under flooded paddy conditions, CYPIR (Rice Flatsedge); assay type: in vivo; conditions: preemergence, flooded paddy, rated three to four weeks after treatment
[4] = test system: Echinochloa oryzoides (Ard.) Fritsch.; test: Preemergence weed control under flooded paddy conditions, ECHORC (Watergrass (Calif.)); assay type: in vivo; conditions: preemergence, flooded paddy, rated three to four weeks after treatment
[5] = test system: Oryza sativa, (L.) Tebonnet; test: Rice tolerance to post-transplant applications under flooded paddy conditions (Example 187), ORYSAT (Rice, Tebonnet); conditions: rated three to four weeks after treatment
[6] = test system: Sagittaria pygmaea, L.; test: Preemergence weed control under flooded paddy conditions, SAGPY (Arrowhead (Pygmaea)); assay type: in vivo; conditions: preemergence, flooded paddy, rated three to four weeks after treatment

CC(C)N(C(C)C)S(=O)(=O)NC(=O)c1nsc2ccc(-n3c(=O)cc(C(F)(F)F)n(C)c3=O)cc12 [Example 500, 1,2-Benzisothiazole-3-carboxamide, 5-[3,6-dihydro-3-methyl-2,6-dioxo-4-(trifluoromethyl)-1(2H)-pyrimidinyl)-N-(diisopropylsulfamoyl)-]
9.0: MOOVA herbicidal rating ([1]; 0.0620 kg/ha) | MOOVA herbicidal rating ([1]; 0.1250 kg/ha) | MOOVA herbicidal rating ([1]; 0.2500 kg/ha) | CYPIR herbicidal rating ([3]; 0.2500 kg/ha) | ECHORC herbicidal rating ([4]; 0.2500 kg/ha) | SAGPY herbicidal rating ([6]; 0.2500 kg/ha)
6.0: CYPIR herbicidal rating ([3]; 0.0320 kg/ha) | CYPIR herbicidal rating ([3]; 0.0620 kg/ha) | CYPIR herbicidal rating ([3]; 0.1250 kg/ha) | ECHORC herbicidal rating ([4]; 0.0620 kg/ha)
2.0: ORYSAT herbicidal rating (rice tolerance) ([5]; 0.0320 kg/ha) | ORYSAT herbicidal rating (rice tolerance) ([5]; 0.0620 kg/ha) | ORYSAT herbicidal rating (rice tolerance) ([5]; 0.1250 kg/ha) | ORYSAT herbicidal rating (rice tolerance) ([5]; 0.2500 kg/ha)
4.0: ECHORC herbicidal rating ([4]; 0.0320 kg/ha)
0.0: CYPSE herbicidal rating ([2]; 0.0320 kg/ha) | CYPSE herbicidal rating ([2]; 0.0620 kg/ha) | CYPSE herbicidal rating ([2]; 0.1250 kg/ha) | CYPSE herbicidal rating ([2]; 0.2500 kg/ha)
7.0: MOOVA herbicidal rating ([1]; 0.0320 kg/ha) | ECHORC herbicidal rating ([4]; 0.1250 kg/ha) | SAGPY herbicidal rating ([6]; 0.0620 kg/ha) | SAGPY herbicidal rating ([6]; 0.1250 kg/ha)
5.0: SAGPY herbicidal rating ([6]; 0.0320 kg/ha)

Cn1c(C(F)(F)F)cc(=O)n(-c2ccc3snc(CO)c3c2)c1=O [Example 225, 3-[3-(Hydroxymethyl)-1,2-benzisothiazol-5-yl]-1-methyl-6-(trifluoromethyl)-2,4(1H,3H)-pyrimidinedione]
2.0: CYPIR herbicidal effect rating ([3]; Rate 0.1250 kg/ha) | ECHORC herbicidal effect rating ([4]; Rate 0.0625 kg/ha)
8.0: MOOVA herbicidal effect rating ([1]; Rate 0.0313 kg/ha) | MOOVA herbicidal effect rating ([1]; Rate 0.0625 kg/ha)
4.0: ECHORC herbicidal effect rating ([4]; Rate 0.1250 kg/ha) | ORYSAT herbicidal effect rating ([5]; Rate 0.0625 kg/ha)
3.0: ORYSAT herbicidal effect rating ([5]; Rate 0.0313 kg/ha)
0.0: CYPSE herbicidal effect rating ([2]; Rate 0.0313 kg/ha) | CYPSE herbicidal effect rating ([2]; Rate 0.0625 kg/ha) | CYPSE herbicidal effect rating ([2]; Rate 0.1250 kg/ha) | CYPSE herbicidal effect rating ([2]; Rate 0.2500 kg/ha) | CYPIR herbicidal effect rating ([3]; Rate 0.0313 kg/ha) | CYPIR herbicidal effect rating ([3]; Rate 0.0625 kg/ha) | ECHORC herbicidal effect rating ([4]; Rate 0.0313 kg/ha) | SAGPY herbicidal effect rating ([6]; Rate 0.0313 kg/ha) | SAGPY herbicidal effect rating ([6]; Rate 0.0625 kg/ha) | SAGPY herbicidal effect rating ([6]; Rate 0.1250 kg/ha) | SAGPY herbicidal effect rating ([6]; Rate 0.2500 kg/ha)
9.0: MOOVA herbicidal effect rating ([1]; Rate 0.1250 kg/ha) | MOOVA herbicidal effect rating ([1]; Rate 0.2500 kg/ha)
7.0: CYPIR herbicidal effect rating ([3]; Rate 0.2500 kg/ha) | ECHORC herbicidal effect rating ([4]; Rate 0.2500 kg/ha) | ORYSAT herbicidal effect rating ([5]; Rate 0.2500 kg/ha)
6.0: ORYSAT herbicidal effect rating ([5]; Rate 0.1250 kg/ha)

CC(C)N(C(C)C)S(=O)(=O)NC(=O)COc1ccccc1-c1nsc2ccc(-n3c(=O)cc(C(F)(F)F)n(C)c3=O)cc12 [Example 512, Acetamide, 2-{o-{5-[3,6-dihydro-3-methyl-2,6-dioxo-4-(trifluoromethyl)-1(2H)-pyrimidinyl]-1,2-benzisothiazol-3-yl}phenoxy}-N-(diisopropyl-sulfamoyl)-]
4.0: SAGPY herbicidal rating ([6]; 0.2500 kg/ha)
1.0: ORYSAT herbicidal rating (rice tolerance) ([5]; 0.1250 kg/ha)
7.0: ECHORC herbicidal rating ([4]; 0.0320 kg/ha) | ECHORC herbicidal rating ([4]; 0.0620 kg/ha)
9.0: MOOVA herbicidal rating ([1]; 0.0320 kg/ha) | MOOVA herbicidal rating ([1]; 0.0620 kg/ha) | MOOVA herbicidal rating ([1]; 0.1250 kg/ha) | MOOVA herbicidal rating ([1]; 0.2500 kg/ha) | ECHORC herbicidal rating ([4]; 0.1250 kg/ha) | ECHORC herbicidal rating ([4]; 0.2500 kg/ha)
2.0: CYPIR herbicidal rating ([3]; 0.0620 kg/ha) | ORYSAT herbicidal rating (rice tolerance) ([5]; 0.2500 kg/ha) | SAGPY herbicidal rating ([6]; 0.1250 kg/ha)
0.0: CYPSE herbicidal rating ([2]; 0.0320 kg/ha) | CYPSE herbicidal rating ([2]; 0.0620 kg/ha) | CYPSE herbicidal rating ([2]; 0.1250 kg/ha) | CYPSE herbicidal rating ([2]; 0.2500 kg/ha) | CYPIR herbicidal rating ([3]; 0.0320 kg/ha) | ORYSAT herbicidal rating (rice tolerance) ([5]; 0.0320 kg/ha) | ORYSAT herbicidal rating (rice tolerance) ([5]; 0.0620 kg/ha) | SAGPY herbicidal rating ([6]; 0.0320 kg/ha) | SAGPY herbicidal rating ([6]; 0.0620 kg/ha)
5.0: CYPIR herbicidal rating ([3]; 0.1250 kg/ha) | CYPIR herbicidal rating ([3]; 0.2500 kg/ha)
